Test [1] addresses T1, human full-length recombinant HDAC6 (Homo sapiens (Human), UniProt Q9UBN7). Briefly: HDAC6 enzymatic activity assay (Reaction Biology Corporation, RHKKAc fluorogenic peptide). The format is biochemical. The following applies: Reaction Biology Corporation protocol, RHKKAc fluorogenic peptide 10 μM; read-out: HDAC6 biochem. The procedure:
(§1) Dose response testing of HDAC6 and HDAC 1 were run at Reaction Biology Corporation (RBC). Inhibition of HDAC enzymes was performed using N-terminal GST tagged human full-length recombinant HDAC6 (H88-30G, SignalChem) and C-terminal FLAG His tag human full-length recombinant HDAC1 produced in insect cells (KDA-21-365, RBC). Enzyme reactions were run in 50 mM Tris-HCl, pH8.0, 137 mM NaCl, 2.7 mM KCl, and 1 mM MgCl2 with 1 mg/ml BSA, 1% DMSO freshly added. 2× enzyme was delivered in the wells of the reaction plate except for the “no enzyme” control wells. In the latter, buffer was added. Compounds in 100% DMSO were delved into the enzyme mixture by acoustic technology (Echo550). Plates are spun down and compounds were incubation with the enzyme for 10 min at room temperature. 2× Fluorogenic peptide from p53 residues 379-382 (RHKKAc, 10 μM final concentration) was added in all wells to initiate the reaction, followed by 1 h incubation at 30° C. Developer containing Trichostatin A was added to stop the reaction and generate fluorescent color. A kinetic measurement was carried out for 20 min with 5 min interval on the Envision plate reader (Perkin Elmer, Ex/Em=360/460). End point reading i.e., plateau of the development reaction was used for analysis. Data was reported by RBC as percentage enzyme activity. Percentage inhibition was calculated by subtracting percentage enzyme activity from 100. IC50 values were calculated using GraphPad Prism 9 based on the log(inhibitor) vs. response—Variable slope (four parameters) equation.

In test [2] the target is T2, human full-length recombinant HDAC1 (Homo sapiens (Human), UniProt Q13547). Put plainly: HDAC1 enzymatic activity assay (alternative protocol, Ac-Gly-Ala-Lys(Ac)-AMC). In kind it is biochemical. The following applies: 4 nM enzyme, read-out: HDAC1 biochem. In a few lines:
(§2)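 Sf9-expressed enzymes (4 nM HDAC1, 5 nM HDAC6) preincubated 10 min at RT with compound, then 60 min with Ac-Gly-Ala-Lys(Ac)-AMC ([…] HDAC1, 40 µM HDAC6); pH 8.0 Tris buffers, HDAC6 buffer with EDTA and DTT. Trypsin/SAHA developer stop, fluorescence 360/450 nm after 15 min; normalized to DMSO (100%) and 10 μM SAHA (0%).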

The target in test [3] is T1, human full-length recombinant HDAC6. Briefly: HDAC6 enzymatic activity assay (alternative protocol, Ac-Gly-Ala-Lys(Ac)-AMC). In kind it is biochemical. The following applies: 5 nM enzyme, read-out: HDAC6 biochem. In a few lines:
as §2

For test [4], the target named is T2, human full-length recombinant HDAC1. Briefly: HDAC1 enzymatic activity assay (Reaction Biology Corporation, RHKKAc fluorogenic peptide). The format is biochemical. The following applies: Reaction Biology Corporation protocol, RHKKAc fluorogenic peptide 10 μM; read-out: HDAC1 biochem. The procedure: as §1
Test [5] deals with catalytic domain 2 (CD2) of HDAC6 (Homo sapiens (Human), UniProt Q9UBN7). Briefly: Cellular target engagement assay - NanoBRET. In kind it is cell-based. The following applies: NanoLuc-HDAC6(CD2) in HEK293T cells, 2 hours, read-out: IC50 (HDAC6(CD2) interaction).

A value given as a limit tells only on which side of the number the result lay.

catalytic domain 2 (CD2) of HDAC6, sequence (Q9UBN7 482-800): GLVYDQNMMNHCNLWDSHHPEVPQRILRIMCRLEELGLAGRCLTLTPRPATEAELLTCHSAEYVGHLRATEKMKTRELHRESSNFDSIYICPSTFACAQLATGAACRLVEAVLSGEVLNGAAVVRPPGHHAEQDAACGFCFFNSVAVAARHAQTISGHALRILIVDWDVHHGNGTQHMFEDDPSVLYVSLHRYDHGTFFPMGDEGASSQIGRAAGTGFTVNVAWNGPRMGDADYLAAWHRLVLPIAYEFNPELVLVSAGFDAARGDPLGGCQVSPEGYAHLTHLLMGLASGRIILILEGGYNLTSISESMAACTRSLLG
T1 sequence (Q9UBN7 whole entry): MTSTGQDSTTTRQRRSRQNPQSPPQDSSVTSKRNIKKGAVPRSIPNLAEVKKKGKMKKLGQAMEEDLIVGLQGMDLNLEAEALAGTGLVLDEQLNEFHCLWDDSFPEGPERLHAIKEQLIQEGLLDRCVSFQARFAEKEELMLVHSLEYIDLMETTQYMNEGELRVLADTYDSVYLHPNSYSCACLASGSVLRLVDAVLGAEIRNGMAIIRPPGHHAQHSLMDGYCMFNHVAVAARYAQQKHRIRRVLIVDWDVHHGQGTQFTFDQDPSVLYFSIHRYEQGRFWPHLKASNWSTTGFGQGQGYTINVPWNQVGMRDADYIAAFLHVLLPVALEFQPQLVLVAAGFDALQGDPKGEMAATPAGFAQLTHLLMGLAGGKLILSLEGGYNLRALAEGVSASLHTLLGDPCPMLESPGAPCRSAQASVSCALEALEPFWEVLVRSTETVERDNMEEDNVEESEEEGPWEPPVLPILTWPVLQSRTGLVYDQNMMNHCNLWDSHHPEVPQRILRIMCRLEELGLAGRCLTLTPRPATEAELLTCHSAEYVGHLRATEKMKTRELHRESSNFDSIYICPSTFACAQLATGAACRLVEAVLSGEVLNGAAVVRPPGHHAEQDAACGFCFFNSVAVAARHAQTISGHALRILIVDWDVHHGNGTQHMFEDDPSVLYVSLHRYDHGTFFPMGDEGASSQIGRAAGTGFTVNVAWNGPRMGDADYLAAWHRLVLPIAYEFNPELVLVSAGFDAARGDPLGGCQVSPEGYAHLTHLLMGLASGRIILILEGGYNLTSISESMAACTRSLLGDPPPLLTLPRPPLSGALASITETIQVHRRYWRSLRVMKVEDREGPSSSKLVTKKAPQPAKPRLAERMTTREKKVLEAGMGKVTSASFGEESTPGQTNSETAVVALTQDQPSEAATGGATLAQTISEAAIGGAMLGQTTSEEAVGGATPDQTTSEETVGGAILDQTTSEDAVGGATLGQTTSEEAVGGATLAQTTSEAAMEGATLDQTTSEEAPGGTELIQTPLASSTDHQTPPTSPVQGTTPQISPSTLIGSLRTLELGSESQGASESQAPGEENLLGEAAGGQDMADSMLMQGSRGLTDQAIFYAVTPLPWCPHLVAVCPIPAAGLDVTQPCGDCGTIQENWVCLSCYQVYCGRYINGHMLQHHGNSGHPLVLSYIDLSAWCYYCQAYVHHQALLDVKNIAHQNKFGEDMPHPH
T2 sequence (Q13547 whole entry): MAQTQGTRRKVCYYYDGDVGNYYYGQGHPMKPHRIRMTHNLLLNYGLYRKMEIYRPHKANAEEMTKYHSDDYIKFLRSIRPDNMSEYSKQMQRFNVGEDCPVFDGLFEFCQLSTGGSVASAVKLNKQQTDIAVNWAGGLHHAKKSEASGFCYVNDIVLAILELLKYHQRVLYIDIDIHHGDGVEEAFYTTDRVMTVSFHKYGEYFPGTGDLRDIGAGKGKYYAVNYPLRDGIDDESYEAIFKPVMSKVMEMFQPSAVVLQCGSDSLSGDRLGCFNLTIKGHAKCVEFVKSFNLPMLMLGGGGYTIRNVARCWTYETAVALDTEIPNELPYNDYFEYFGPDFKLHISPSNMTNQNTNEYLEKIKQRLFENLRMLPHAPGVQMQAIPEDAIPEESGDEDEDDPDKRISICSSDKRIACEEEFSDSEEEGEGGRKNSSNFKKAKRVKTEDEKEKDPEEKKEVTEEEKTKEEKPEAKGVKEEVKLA

Turning to `Cn1ncc2c(SCC(=O)c3ccc(CNC(=O)C4CC4)s3)ncnc21` [Example 31, N-((5-(2-((1-methyl-1H-pyrazolo[3,4-d]pyrimidin-4-yl)thio)acetyl)thiophen-2-yl)methyl)cyclopropanecarboxamide], the IC50 was at most 100 nM in test [1]; over 10000 nM in test [2]; at most 100 nM in test [3]; over 10000 nM in test [4]; 1000 to 10000 nM in test [5].

For `O=C(CSc1nc(C(F)(F)F)nc2nn(C3CC3)cc12)c1ccc(CNC(=O)C2CC2(F)F)s1` (centres unmarked) [Example 43, N-((5-(2-((2-cyclopropyl-6-(trifluoromethyl)-2H-pyrazolo[3,4-d]pyrimidin-4-yl)thio)acetyl)thiophen-2-yl)methyl)-2,2-difluorocyclopropane-1-carboxamide], the IC50 is at most 100 nM in test [1], over 10000 nM in test [4] and 100 to 500 nM in test [5].

For `O=C(CSc1nc(C(F)(F)F)nc2nn(C3CC3)cc12)c1ccc(CNC(=O)C(F)(F)C(F)(F)F)s1` [Example 44, N-((5-(2-((2-cyclopropyl-6-(trifluoromethyl)-2H-pyrazolo[3,4-d]pyrimidin-4-yl)thio)acetyl)thiophen-2-yl)methyl)-2,2,3,3,3-pentafluoropropanamide], the IC50 in test [1] was at most 100 nM; in test [4], over 10000 nM; in test [5], 100 to 500 nM.

For the molecule `COc1ccc2nc(C)nc(SCC(=O)c3ccc(CNC(=O)CO)s3)c2c1` [Example 60, 2-Hydroxy-N-((5-(2-((6-methoxy-2-methylquinazolin-4-yl)thio)acetyl)thiophen-2-yl)methyl)acetamide], the IC50 was at most 100 nM in test [1], over 10000 nM in test [4] and at most 100 nM in test [5].

For the molecule `O=C(CSc1nc(C(F)(F)F)nc2ncccc12)c1ccc(CN2CCOCC2=O)s1` [Example 138, 4-((5-(2-((2-(trifluoromethyl)pyrido[2,3-d]pyrimidin-4-yl)thio)acetyl)thiophen-2-yl)methyl)morpholin-3-one], the values for the IC50 in test [1], in test [4] and in test [5] were at most 100 nM, over 10000 nM and at most 100 nM, respectively.

The values above are taken from patent publication US20250051319A1 (AUGUSTINE THERAPEUTICS, priority 2021, published 2025).
